Test results: patent publication US5605901A, “Indane derivatives, processes for preparing the same and synthetic intermediate of the same” (Tanabe Seiyaku Co., Ltd., priority 1993, dated 1997)

Assay: Action on rat glomerular nephritis (nephrotoxic serum-induced; protein excretion in urine)
Assay type: in vivo, rat (WKY strain)
Conditions: po, 30 mg/kg/10 ml orally twice a day for 8 days, NTS-induced nephritis, 24 hours urine collected after 7 days, read-out: Inhibition rate of excretion of protein in urine
Experimental: (Action on Rat Glomerular Nephritis)
Rabbits were immunized several times with a renal glomerular basement membrane fraction obtained from WKY strain rats and an adjuvant. Thereafter, blood was collected to obtain a nephrotoxic serum (NTS). This NTS was diluted by 50 times with physiological saline, and the diluted NTS was once administered intravenously to male WKY rats of 8 weeks old in a dose of 2.5 ml per 1 kg of body weight to induce nephritis. In normal group of rats, the same volume of physiological saline was intravenously administered.
In the experiment, one group consisted of 6 rats, and each compound to be tested was suspended in water with small amount of Tween 80 (trade name, produced by Nacalai Tesque Co.), and was orally administered to the test group of rats at a dose of 30 mg/kg/10 ml twice a day for 8 days. In normal group and control group of rats, the same volume of water was orally administered instead of the test compound. After 7 days, the rats were placed in metabolic cages and urine was collected for 24 hours. Concentrations of protein in urine were measured by the sulfosalicylic acid method to determine amounts of protein excreted in the urine (mg/day). The inhibition rate of excretion of protein were calculated by the following equation. [formula]
With `O=C(NCCC1Cc2ccc(-c3ccc(=O)[nH]n3)cc2C1)c1ccncc1` (stereo not drawn) [Example 109] the inhibition in vivo at 30 mg/kg was 67.4%.
For `O=C1CCC(c2ccc3c(c2)CC(CCNC(=O)c2cccnc2)C3)=NN1` (stereo not drawn) [Example 148], the inhibition in vivo at 30 mg/kg was 88.9%.
Molecule `CCCOC(=O)NC1Cc2ccc(-c3ccc(=O)[nH]n3)cc2C1` (stereo not drawn) [Example 48] has an inhibition in vivo at 30 mg/kg of 60.3%.
For `O=C(NCC1Cc2ccc(-c3ccc(=O)[nH]n3)cc2C1)c1cccnc1` (stereo not drawn) [Example 60], the inhibition in vivo at 30 mg/kg was 59.5%.
With `C=CC(=O)NCCC1Cc2ccc(-c3ccc(=O)[nH]n3)cc2C1` (stereo not drawn) [Example 105] the inhibition in vivo at 30 mg/kg was 60.2%.
`CCCC(=O)NC1Cc2ccc(-c3ccc(=O)[nH]n3)cc2C1` (stereo not drawn) [Example 40, 2-butyrylamino-5-[pyridazin-3(2H)-on-6-yl]indane] gave an inhibition in vivo at 30 mg/kg of 72.4%.
`O=C(NCCC1Cc2ccc(-c3ccc(=O)[nH]n3)cc2C1)c1cccnc1` (stereo not drawn) [Example 110] showed an inhibition in vivo at 30 mg/kg of 91.8%.
In the case of `C=CC(=O)NCCCC1Cc2ccc(-c3ccc(=O)[nH]n3)cc2C1` (stereo not drawn) [Example 106], the inhibition in vivo at 30 mg/kg is reported as 81%.
`Nc1ncccc1C(=O)NCCC1Cc2ccc(-c3ccc(=O)[nH]n3)cc2C1` (stereo not drawn) [Example 129] showed an inhibition in vivo at 30 mg/kg of 98.9%.
Work on `C=CC(=O)NCCCCC1Cc2ccc(-c3ccc(=O)[nH]n3)cc2C1` (stereo not drawn) [Example 63] yielded an inhibition in vivo at 30 mg/kg of 61.6%.
`Cc1ncccc1C(=O)NCCC1Cc2ccc(-c3ccc(=O)[nH]n3)cc2C1` (stereo not drawn) [Example 127] gave an inhibition in vivo at 30 mg/kg of 93%.

Assay: Action of protecting mouse from death induced by endotoxin
Assay type: in vivo, mouse (ddy strain)
Conditions: 100 mg/kg orally, 30 min before endotoxin 100 mg/10 ml/kg i.p.; determined when control survival became 20 (about 20 hours)
Experimental: (Action of Protecting Mouse from Death Induced by Endotoxin)
To ddy strain male mice (one group: 10 mice) which had fasted for about 24 hours, each test sample dissolved or suspended in a 0.25% sodium carboxymethyl cellulose (CMC) aqueous solution was orally administered (100 mg/kg). After 30 minutes, 100 mg/10 ml/kg of endotoxin (lipopoly-saccharide) derived from Escherichia coli dissolved in physiological saline was administered intraperitoneally. When the survival rate of the control group to which the CMC aqueous solution had been orally administered became 20 (about 20 hours after administration of endotoxin), the survival rates of the groups to which the test samples had been administered were determined.
Work on `O=C1CCC(c2ccc3c(c2)CC(NC(=O)c2cnccn2)C3)=NN1` (stereo not drawn) [Example 22] yielded a Survival rate of 70%.
With `CCCN(C(=O)OCc1ccccc1)C1Cc2ccc(C3=NNC(=O)CC3)cc2C1` (stereo not drawn) [Example 37] the Survival rate was 60%.
In the case of `O=C1CCC(c2ccc3c(c2)CC(NC(=O)c2cccnc2)C3)=NN1` (stereo not drawn) [Example 18], the Survival rate is reported as 80%.
In the case of `CCCN(C(=O)OCC(C)C)C1Cc2ccc(C3=NNC(=O)CC3)cc2C1` (stereo not drawn) [Example 35, 2-(N-propyl-N-isobutoxycarbonylamino)-5-[4,5-dihydropyridazin-3(2H)-on-6-yl]indane], the Survival rate is reported as 80%.
`O=C1CCC(c2ccc3c(c2)CC(NC(=O)c2ccccn2)C3)=NN1` (stereo not drawn) [Example 25] showed a Survival rate of 80%.
For `CCCC(=O)NC1Cc2ccc(C3=NNC(=O)CC3)cc2C1` (stereo not drawn) [Example 11, 2-butyrylamino-5-[4,5-dihydropyridazin-3(2H)-on-6-yl]indane], the Survival rate was 100%.
`CCC(=O)NC1Cc2ccc(C3=NNC(=O)CC3)cc2C1` (stereo not drawn) [Example 12] showed a Survival rate of 90%.
